Source: patent US10130637B2, “Inhibition of histone methyltransferase for cardiac reprogramming” (Duke University, priority 2012, dated 2018)
Where a name gives a salt, the structure may show the parent alone.

Columns and labels:
[1] = test system: lysine 9 of histone H3 (H3K9); conditions: has been shown; cited from earlier work
[2] = target: T1, G9a histone lysine methyltransferase (Homo sapiens, UniProt Q96KQ7); conditions: reported activity; cited from earlier work
T1 sequence (Q96KQ7 1-1210): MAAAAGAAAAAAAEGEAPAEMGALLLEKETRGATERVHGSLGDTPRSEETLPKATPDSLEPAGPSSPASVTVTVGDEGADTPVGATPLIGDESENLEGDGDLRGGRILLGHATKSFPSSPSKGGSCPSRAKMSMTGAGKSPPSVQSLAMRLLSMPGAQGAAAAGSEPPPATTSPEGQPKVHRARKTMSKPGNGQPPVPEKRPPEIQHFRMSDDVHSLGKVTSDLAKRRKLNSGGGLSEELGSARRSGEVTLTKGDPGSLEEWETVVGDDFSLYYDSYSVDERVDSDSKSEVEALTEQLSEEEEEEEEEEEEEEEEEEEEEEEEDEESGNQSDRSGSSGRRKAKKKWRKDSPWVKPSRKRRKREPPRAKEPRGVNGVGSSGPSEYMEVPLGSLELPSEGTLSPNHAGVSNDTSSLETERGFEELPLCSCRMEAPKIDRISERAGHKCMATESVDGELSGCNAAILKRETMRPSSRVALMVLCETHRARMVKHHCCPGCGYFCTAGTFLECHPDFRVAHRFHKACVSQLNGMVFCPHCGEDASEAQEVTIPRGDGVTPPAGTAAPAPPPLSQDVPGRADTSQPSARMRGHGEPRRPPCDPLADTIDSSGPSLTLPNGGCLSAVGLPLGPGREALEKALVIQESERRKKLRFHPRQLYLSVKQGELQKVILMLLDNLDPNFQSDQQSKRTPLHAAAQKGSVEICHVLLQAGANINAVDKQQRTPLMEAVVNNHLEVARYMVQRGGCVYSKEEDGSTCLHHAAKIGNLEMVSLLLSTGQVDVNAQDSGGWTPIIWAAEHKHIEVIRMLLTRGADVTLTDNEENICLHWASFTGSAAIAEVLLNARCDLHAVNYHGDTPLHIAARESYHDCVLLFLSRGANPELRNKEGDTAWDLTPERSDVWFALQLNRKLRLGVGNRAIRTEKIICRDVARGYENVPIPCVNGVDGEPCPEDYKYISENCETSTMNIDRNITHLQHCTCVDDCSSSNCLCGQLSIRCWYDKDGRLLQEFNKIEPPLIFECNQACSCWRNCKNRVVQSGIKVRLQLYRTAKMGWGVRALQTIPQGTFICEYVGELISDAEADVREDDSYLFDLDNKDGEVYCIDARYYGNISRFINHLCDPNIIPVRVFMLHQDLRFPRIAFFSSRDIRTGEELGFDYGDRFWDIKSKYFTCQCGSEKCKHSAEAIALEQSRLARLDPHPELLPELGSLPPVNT

[3] = target: T2, G9a-like protein (Homo sapiens, UniProt Q9H9B1); conditions: reported activity; cited from earlier work
T2 sequence (Q9H9B1 1-1298): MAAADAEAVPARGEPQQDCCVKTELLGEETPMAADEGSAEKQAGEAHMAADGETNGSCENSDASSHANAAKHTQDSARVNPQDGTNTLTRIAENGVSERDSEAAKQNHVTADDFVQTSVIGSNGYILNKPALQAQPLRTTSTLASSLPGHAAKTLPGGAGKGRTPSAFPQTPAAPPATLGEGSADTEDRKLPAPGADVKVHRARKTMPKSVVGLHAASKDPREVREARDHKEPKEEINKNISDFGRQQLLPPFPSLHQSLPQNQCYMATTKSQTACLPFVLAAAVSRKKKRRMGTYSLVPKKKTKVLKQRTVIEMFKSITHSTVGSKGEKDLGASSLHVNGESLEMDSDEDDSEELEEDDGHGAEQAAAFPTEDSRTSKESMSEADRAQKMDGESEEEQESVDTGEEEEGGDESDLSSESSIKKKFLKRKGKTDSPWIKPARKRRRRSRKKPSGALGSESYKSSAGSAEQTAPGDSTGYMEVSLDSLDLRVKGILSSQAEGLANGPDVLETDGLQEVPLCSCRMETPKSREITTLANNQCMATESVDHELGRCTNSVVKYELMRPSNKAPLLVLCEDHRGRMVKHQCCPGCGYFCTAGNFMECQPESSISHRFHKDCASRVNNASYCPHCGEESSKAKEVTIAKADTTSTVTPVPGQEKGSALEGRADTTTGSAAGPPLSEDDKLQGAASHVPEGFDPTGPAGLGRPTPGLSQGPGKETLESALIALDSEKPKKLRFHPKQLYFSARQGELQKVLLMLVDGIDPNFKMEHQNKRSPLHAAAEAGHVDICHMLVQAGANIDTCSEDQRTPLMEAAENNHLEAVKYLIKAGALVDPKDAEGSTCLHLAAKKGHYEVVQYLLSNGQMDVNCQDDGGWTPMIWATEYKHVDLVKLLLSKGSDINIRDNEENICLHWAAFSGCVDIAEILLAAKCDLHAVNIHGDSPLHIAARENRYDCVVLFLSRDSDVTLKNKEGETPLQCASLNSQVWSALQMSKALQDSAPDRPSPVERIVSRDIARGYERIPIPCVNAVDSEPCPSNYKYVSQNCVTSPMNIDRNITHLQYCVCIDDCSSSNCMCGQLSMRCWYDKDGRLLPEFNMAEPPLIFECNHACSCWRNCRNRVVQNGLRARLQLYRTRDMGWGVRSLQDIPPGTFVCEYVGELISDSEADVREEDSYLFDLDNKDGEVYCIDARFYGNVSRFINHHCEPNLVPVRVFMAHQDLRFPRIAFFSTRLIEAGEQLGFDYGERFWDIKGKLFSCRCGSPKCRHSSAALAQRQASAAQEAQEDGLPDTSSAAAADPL

[4] = test system: Neonatal cardiac fibroblasts; assay: cardiac marker gene expression by qPCR in neonatal cardiac fibroblasts treated with HMT inhibitors, no microRNA; format: cell-based, mouse; conditions: 1 μM, after 3 days, absence of microRNA combination (FIG. 9A)
Protocol: Neonatal cardiac fibroblasts were treated with 1 μM of the H3K9me3 inhibitor BIX-01294 (BIX) or 1 μM of the H3K27me3/H4K20me3 inhibitor 3-Deazaneplanocin A hydrochloride (DZNep) from day 1 to day 3 in the absence (A) or presence of microRNA combination (MC) (B). Gene expression of cardiac markers was assessed by qPCR. Data are shown as Avg+Sdv. *P<0.05.
Inhibition of histone methyltransferase activity by small molecule compounds was investigated. Neonatal cardiac fibroblasts were treated with 1 μM of the H3K9 methylation inhibitor BIX-01294 or 1 μM of the H3K27/H4K20 methylation inhibitor 3-Deazaneplanocin A hydrochloride (DZNep). After 3 days, RNA was harvested using standard protocols known in the art, and cardiac gene expression was assessed by qPCR. The cardiac genes tested were Tbx5, Mef2C, Gata4, and Nkx2.5. […] Alternatively, inhibition of H3K9 causes upregulation of other cardiac markers, such asTbx5, and therefore inhibition of H3K9 methylation also promotes the expression of at least one cardiac marker.

[5] = test system: Human fibroblasts (BJ cells); assay: cardiac marker gene expression by qPCR in miRNA-transfected human fibroblasts with JAK inhibitor; format: cell-based; conditions: 1 μM, compared to cells transfected with the miRNAs alone
Protocol: Gene expression was determined by qPCR. (A) Isl-1 gene expression. (B) […] gene expression. (C) Tbx5 gene expression. (D) Mef2c gene expression. (E) Gata-4 gene expression.
RNA was harvested and prepared according to standard protocols for qPCR gene expression analysis. The expression of cardiac marker genes, such as Isl1, Mesp1, Tbx5, Mef2c, Gata4, and Hand2 was assessed.

SMILES | methylation at lysine 9 of histone H3 (H3K9) [1] | activity on G9a histone lysine methyltransferase [2] | activity on G9a-like protein [3] | Mef2C cardiac marker gene expression [4] | Nkx2.5 cardiac marker gene expression [4] | Tbx5 cardiac marker gene expression [4] | expression of cardiac markers (Isl1, Mesp1, Tbx5, Mef2c, Gata4, Hand2) [5]
COc1cc2nc(N3CCCN(C)CC3)nc(NC3CCN(Cc4ccccc4)CC3)c2cc1OC [BIX-01294, 2-(Hexahydro-4-methyl-1H-1,4-diazepin-1-yl)-6,7-dimethoxy-N-[1-(phenylmethyl)-4-piperidinyl]-4-quinazolinamine trihydrochloride] | inhibit | inhibition | inhibition | significant downregulation | significant downregulation | upregulation | 
CC(C)(C)c1nc2c3ccc(F)cc3c3c(=O)[nH]ccc3c2[nH]1 [JAK inhibitor I, 2-(1,1-Dimethylethyl)-9-fluoro-3,6-dihydro-7H-benz[h]-imidaz[4,5-f]isoquinolin-7-one] |  |  |  |  |  |  | increases
